In the COVID Moonshot data (paper PMC7615835):
Where “and” joins values, the source holds several entries; their conditions need not be identical. Equal values may be shown once.

Target: SARS-CoV-2 Main Protease (SARS-CoV-2) (UniProt P0DTD1)

| SMILES | IC50 |
| --- | --- |
| Cc1ccn2ncc(C(=O)Nc3ccc4[nH]c(C)cc(=O)c4c3)c2n1 | > 99.5 µM |
| Cc1cc(Br)cc(Nc2cc(Cl)cc(CC(=O)Nc3cncc4ccccc34)c2)c1 | 1.96 µM |
| O=C1CC(C(=O)N2CCN(c3cccc(Cl)c3)CC2)c2ccccc2N1 (stereo unspecified) | 20.9 µM |
| Cc1cc(Nc2cc(Cl)cc(CC(=O)Nc3cncc4ccccc34)c2)cnc1Br | 1.95 µM |
| CN(c1ccc2c(NC(=O)Cc3cccc(Cl)c3)cncc2c1)S(C)(=O)=O | 2.7 µM |
| O=C(CCl)N1CC2CC1CN2Cc1cccc(Cl)c1 (stereo unspecified) | 2.17 µM |
| Cc1nc2ccc(NCc3cnc4ccccn34)cn2n1 | > 99.5 µM |
| NCc1cn(CC(=O)N(Cc2ccsc2)c2ccc(-n3cnnc3)cc2)nn1 | > 99.5 µM |
| O=C(Cc1cc(Cl)cc(Oc2cccnc2)c1)Nc1cncc2ccccc12 | 1.14 µM and 1.57 µM and 1.17 µM |
| CCn1c2ccccc2c2cc(Nc3cc(Cl)cc(CC(=O)Nc4cncc5ccccc45)c3)ccc21 | 2.73 µM |
| CNc1ccc(N(C(=O)Cn2nnc3ccccc32)c2cccc(Cl)c2)cc1 | 5.34 µM |
| Cn1ccn2c(CNc3nc4ccccc4s3)nnc2c1=O | > 99.5 µM |
| CC(C)CS(=O)(=O)N1Cc2ccc(Cl)cc2C(C(=O)Nc2cncc3ccc(C(C)(C)O)cc23)C1 (stereo unspecified) | 1.22 µM |
| CC(C)(C)c1ccc(N(C(=O)c2ccco2)C(C(=O)NCCc2cccc(F)c2)c2cnc3ccccn23)cc1 (stereo unspecified) | 37.5 µM |
| O=C(Nc1cncc2cc(CN3CC4(CNC4)C3)ccc12)C1CCOc2ccc(Cl)cc21 (stereo unspecified) | 1.44 µM |
| C=CC(=O)N(c1ccc(C(C)(C)C)cc1)C(C(=O)NCCSC)c1cccnc1 (stereo unspecified) | 20.2 µM |
| CC1C(=O)NCCN1C(=O)CCCc1c[nH]c2ccccc12 (stereo unspecified) | > 99.5 µM |
| Cc1cccc(CN2CCN(c3nc4ccccc4nc3C)CC2)c1 | > 99.5 µM |
| Cc1cc2c(cc1S(=O)(=O)N1CCN(c3ccccc3)CC1)OCO2 | > 99.5 µM |
| O=C(Nc1cnc2ccccn12)C1CCNc2cc(Cl)c(Cl)cc21 (stereo unspecified) | 1.98 µM |
| O=C(Cc1cccc(Cl)c1)Nc1n[nH]c2ccncc12 | > 99.5 µM |
| CNC(=O)c1ccc2cncc(NC(=O)C3CN(S(=O)(=O)CC4(C)CS(=O)(=O)C4)Cc4ccc(Cl)cc43)c2c1 (stereo unspecified) | 0.11 µM |
| Cc1ccc(S(=O)(=O)NC2CCN(C(=O)CCl)CC2)cc1 | 33.5 µM |
| O=C(CCl)N1CCN(Cc2cc(Cl)ccc2CNC(=O)N2CCOCC2)CC1 | 3.8 µM |
| O=C(Nc1cccnc1)c1cc(Cl)ccc1-c1ccccc1 | 39.1 µM |
| CCCCCC(=O)SCCNC(=O)CCNC(=O)[C@H](O)C(C)(C)COP(=O)(O)OP(=O)(O)OC[C@H]1O[C@@H](n2cnc3c(N)ncnc32)[C@H](O)[C@@H]1OP(=O)(O)O (stereo in doubt) | 46.1 µM and 85.1 µM |

| SMILES | IC50 |
| --- | --- |
| CN(C)C(=O)CN1CCN(c2cc(Cl)cc(CC(=O)Nc3cncc4ccccc34)c2)CC1 | 2.85 µM |
| O=C(CN1CC(C(=O)Nc2cncc3ccccc23)c2cc(Cl)ccc2C1=O)NCC1CCC1 (stereo unspecified) | 0.107 µM |
| CS(=O)(=O)c1ccc(N(C(=O)c2cocn2)C(C(=O)NCCc2cccc(F)c2)c2cccnc2)cc1 (stereo unspecified) | 75.9 µM |
| O=C(Cc1cc(Cl)cc(Nc2ccc3ccccc3c2O)c1)Nc1cncc2ccccc12 | 4.1 µM |
| CN(CC#N)S(=O)(=O)N1Cc2ccc(Cl)cc2C2(CCN(c3cncc4ccccc34)C2=O)C1 (stereo unspecified) | 0.407 µM |
| CC(C)(C)c1ccc(-c2nnc(Sc3cnc([N+](=O)[O-])s3)o2)cc1 | 7.29 µM and 2.38 µM |
| CCCCN1C(=O)C(=O)c2cc(Br)cc(C)c21 | > 99.5 µM |
| CC(C(=O)NS(=O)(=O)c1cnn(-c2cccc(C(F)(F)F)c2)c1)n1cnc(C#N)n1 (stereo unspecified) | > 99.5 µM |
| O=C(Nc1cncc2ccccc12)C12CC(C1)Oc1ccc(Cl)cc12 | 56.4 µM |
| O=C(Nc1cncc2ccccc12)C1CCOc2c(OCC3CC3)cc(Cl)cc21 (stereo unspecified) | > 2.49 µM |
| O=C(Cc1cc(Cl)cc(-c2nnn[nH]2)c1)Nc1cncc2ccccc12 | 21.4 µM |
| Cc1ccc(S(=O)(=O)N2CCN(C(=O)CCl)CC2)cc1 | 21 µM |
| C=CC(=O)N(c1ccc(C(F)(F)F)cc1)C(C(=O)NCCc1cccc(F)c1)c1cncc(C#N)c1 (stereo unspecified) | 11.1 µM |
| CCC(C(=O)O)N1CCCC(NC(=O)c2ccc3ccccc3c2)C1 (stereo unspecified) | > 99.5 µM |
| O=C(Cc1cc(Cl)cc(Nc2ccc(F)nc2Br)c1)Nc1cncc2ccccc12 | 1.86 µM |
| CCOC(=O)c1c(C)n(S(C)(=O)=O)c2ccc(N(C(=O)c3ccco3)S(C)(=O)=O)cc12 | 0.282 µM |
| CC(CCc1ccco1)NC(=O)Nc1cn(C)c(=O)c2ccccc12 (stereo unspecified) | 44.5 µM |
| CNC(=O)Nc1ccc(N(Cc2ccsc2)C(=O)Cn2nnc3ccccc32)cc1 | 1.42 µM |
| N#CC1(CS(=O)(=O)N2Cc3ccc(Cl)cc3[C@@H](C(=O)Nc3cncc4ccccc34)C2)CCS(=O)(=O)CC1 (stereo in doubt) | 15.3 µM |
| N#CC1(CS(=O)(=O)N2Cc3ccc(Cl)cc3[C@H](C(=O)Nc3cncc4ccccc34)C2)CCOCC1 (stereo in doubt) | 0.06 µM and 0.0875 µM |
| Cc1ccncc1NC(=O)Cc1cc(Cl)cc(OC2COC2)c1 | 16 µM |
| CC(C)(C)c1ccc(N(C(=O)c2cncs2)C(C(=O)NCCc2cccc(F)c2)c2cccnc2)cc1 (stereo unspecified) | 24.2 µM |
| O=C(NC1(C(=O)Nc2cncc3ccccc23)CCOc2ccc(Cl)cc21)C1CCC(C(=O)N2CCCC2)O1 (stereo unspecified) | 2.81 µM |
| O=C(CCl)N1CCN(Cc2cc(O)ccc2O)CC1 | 37.4 µM |
| Cc1ccncc1N1CCN(c2cccc(Cl)c2)C1=O | 81.7 µM |
| O=C(Cc1cccc(Cl)c1)Nc1cncc2c1NCCC2 | 38 µM |

| SMILES | IC50 |
| --- | --- |
| CC(C)(C)c1ccc(N(C(=O)c2ccc(=O)[nH]n2)C(C(=O)NCCc2cccc(F)c2)c2cccnc2)cc1 (stereo unspecified) | > 99.5 µM |
| CCOC(=O)c1c(COc2cc(Cl)cc(CC(=O)Nc3cnccc3C)c2)oc2ccccc12 | > 99.5 µM |
| Cc1ccncc1NC(=O)C(CO)c1cccc(Cl)c1 (stereo unspecified) | > 99.5 µM |
| O=C(NCCc1cccc(F)c1)C(c1cccnc1)N(C(=O)c1cnc[nH]1)c1cccc(Oc2cccnn2)c1 (stereo unspecified) | > 99 µM |
| COc1ccc(C2CC(c3cccs3)=NN2C(=O)CCl)cc1OC (stereo unspecified) | 1.75 µM and 2 µM |
| CC1NCCn2c(-c3nc(-c4cnc5cnccn45)no3)ccc21 (stereo unspecified) | > 99.5 µM |
| N#CC(C(=O)Nc1cncc2ccccc12)c1ccc(Cl)c(Cl)c1 (stereo unspecified) | 0.803 µM |
| CN(C)c1ccc(C(Cc2ccsc2)C(=O)Nn2cnc3ccccc32)cc1 (stereo unspecified) | > 99.5 µM |
| O=C(Cc1cccc(Cl)c1)Nc1c[nH]c2ccccc12 | > 99.5 µM |
| CNC(=O)C1(N2Cc3ccc(Cl)cc3C3(CCN(c4cncc5ccccc45)C3=O)C2)CC1 (stereo unspecified) | 0.0732 µM |
| Nc1cncc(NC(=O)C2CCOc3ccc(Cl)cc32)c1C1CC1 (stereo unspecified) | 4.95 µM |
| CCN(C)CCOc1ccc2cncc(N3CCC4(CN(S(=O)(=O)CC5(C#N)CC5)Cc5ccc(Cl)cc54)C3=O)c2c1 (stereo unspecified) | 0.401 µM |
| O=C(Cc1cc(Cl)cc(N2CCN(c3ccc(O)cc3)CC2)c1)Nc1cncc2ccccc12 | 2.19 µM |
| N#Cc1nccn1CCc1cccc(Cl)c1 | > 99.5 µM |
| Cc1ccc(NC2=C(c3ccccc3)C(=O)N(Cc3cccnc3)C2=O)cc1C | > 99.5 µM |
| NS(=O)(=O)NCCNS(=O)(=O)c1ccccc1[N+](=O)[O-] | > 99.5 µM |
| O=C(Cc1cc(Cl)cc(Nc2nc3cc(Cl)ccc3s2)c1)Nc1cncc2ccccc12 | 2.04 µM |
| Nc1nc2[nH]cnc2c(=O)n1-c1cc(Cl)cc(CC(=O)Nc2cncc3ccccc23)c1 | 1.86 µM |
| CC(C)(C)c1ccc(N(C(=O)c2ccno2)C(C(=O)NCCc2cccc(F)c2)c2cccnc2)cc1 (stereo unspecified) | 1.11 µM |
| O=C(NCCc1ccccc1)[C@@H]1CN(C(=O)CCl)CCN1S(=O)(=O)c1ccsc1 (stereo in doubt) | 1.28 µM |
| CNC(=O)CN1CC(C)(C(=O)Nc2cncc3ccccc23)c2cc(Cl)ccc2C1=O (stereo unspecified) | 0.128 µM and 0.214 µM |
| O=C(Nc1cncc2c1CCCC2)[C@H]1CNS(=O)(=O)c2ccc(Cl)cc21 (stereo in doubt) | 0.723 µM |
| N#CC1(CS(=O)(=O)N2Cc3ccc(Cl)cc3C3(CCN(c4cncc5ccc(OCCN6CCOCC6)cc45)C3=O)C2)CC1 (stereo unspecified) | 0.187 µM |
| O=C(NCCc1cccc(F)c1)C(c1cccnc1)N(C(=O)c1cnc[nH]1)C1CCN(c2ccccc2F)C1 (stereo unspecified) | > 99 µM |
| CCn1nccc1C(=O)N1Cc2ccc(Cl)cc2C2(CCN(c3cncc4ccccc34)C2=O)C1 (stereo unspecified) | 0.297 µM |
| O=C(Cc1cc(Cl)cc(Nc2ccc(Br)c(C(F)(F)F)c2)c1)Nc1cncc2ccccc12 | 2.31 µM |

| SMILES | IC50 |
| --- | --- |
| O=C(Nc1cncc2ccccc12)C1COCc2ccc(Cl)cc21 (stereo unspecified) | 8.08 µM |
| O=C(Cc1cccc(Cl)c1)Nc1cncc2sccc12 | 0.425 µM |
| CC(C)c1cc(N(C(=O)c2ccco2)C(C(=O)NCCc2cccc(F)c2)c2cccnc2)ccc1C(F)(F)F (stereo unspecified) | > 99.5 µM |
| Cc1cn(-c2cc(Nc3cc(Cl)cc(CC(=O)Nc4cncc5ccccc45)c3)cc(C(F)(F)F)c2)cn1 | 2.53 µM |
| O=C(Nc1cncc2ccccc12)[C@H]1CCNc2cc(Cl)c(Cl)cc21 (stereo in doubt) | > 99.5 µM |
| O=C(Cc1cccc(Cl)c1F)Nc1cncc2ccccc12 | 23.6 µM |
| COc1cc(Cl)cc2c1OCC[C@H]2C(=O)Nc1cncc2ccccc12 (stereo in doubt) | > 99.5 µM |
| CCCCc1nc(-c2nccn2CCc2ccccn2)c[nH]1 | 21.7 µM |
| COc1cc(Cl)c(C)cc1Nc1cc(Cl)cc(CC(=O)Nc2cncc3ccccc23)c1 | 1.58 µM |
| Cc1noc(C)c1CCNC(=O)Nc1cn(CC(C)C)c(=O)c2ccccc12 | 27.7 µM |
| C[n+]1ccn(CCCc2cccc(Cl)c2)c1C#N | > 99.5 µM |
| Cc1cc(Br)c(Cl)cc1Nc1cc(Cl)cc(CC(=O)Nc2cncc3ccccc23)c1 | 2.02 µM |
| Cc1ccc2ccccc2c1Nc1cc(Cl)cc(CC(=O)Nc2cncc3ccccc23)c1 | 2.52 µM |
| C=CC(=O)N(c1cc(C(C)(C)C)on1)C(C(=O)Nc1cccc(CC)c1)c1cccnc1 (stereo unspecified) | > 99 µM |
| O=C(CC1(C(=O)Nc2cncc3ccccc23)CCOc2ccc(Cl)cc21)N1CCN(CC(F)(F)CO)CC1 (stereo unspecified) | 7.28 µM |
| O=C(NCCc1cccc(F)c1)C(c1cccnc1)N(C(=O)c1cocn1)C1COc2ccccc2C1 (stereo unspecified) | > 99.5 µM |
| CN(C)CCCN(Cc1cccs1)C(=O)Cc1cncc2ccccc12 | > 99.5 µM |
| Nc1nn(C(=O)C2CCOc3ccc(Cl)cc32)c2ccncc12 (stereo unspecified) | 87.2 µM |
| O=C(Nc1cncc2ccccc12)C1(CCC2CC2)CCOc2ccc(Cl)cc21 (stereo unspecified) | 40.7 µM |
| COc1ccc(-c2ccsc2S(=O)(=O)N2CCN(C(=O)CCl)CC2)cc1 | 1.05 µM |
| Cc1cc2ncc(C(=O)Nc3ccc4oc(C)nc4c3)c(C)n2n1 | > 99.5 µM |
| O=C(Cc1cc(Cl)cc(Nc2cc(Br)ccc2F)c1)Nc1cncc2ccccc12 | 1.9 µM |
| COc1cc(Nc2cc(Cl)cc(CC(=O)Nc3cncc4ccccc34)c2)ccc1Br | 1.89 µM |
